Values joined by “and” are separate entries in the source; they are usually repeats but may differ in a detail not shown here. Identical values can stand only once. Marks after values point to notes of the source that are not given here.
Columns and labels:
5α-reductase = assay: Fatty acid esters on 5α-reductase activity, conversion of testosterone to 5α-dihydrotestosterone in normal human dermal fibroblast cultures (Example 4); type: cell-based; design: key to group by 5α-reductase inhibitory activity: group A with the highest inhibitory activity; group B with an intermediate inhibitory activity; conditions: for inhibition of the 5α-reductase activity: Example 4, p<0.05; for 5α-DHT formed per culture well, mean / 5α-DHT formed per culture well, single well: after 24 of incubation, DMSO 0.1% (v/v); for 5α-DHT formed per culture well, single well: single replicate
Description: The fibroblast culture medium (FCM) consisted of MEM/M199 (3:1, v/v) supplemented with penicillin (50 IU/ml), streptomycin (50 μg/ml), sodium bicarbonate (0.2%, w/v) and FCS (10%, v/v).
The assay system consisted of normal human dermal fibroblasts cultured as a monolayer. The fibroblasts were isolated from a residue from abdominal plastic surgery performed on a person (subject BIOPREDIC No. I0013). The cells were used at the fifth passage; they were cultured until the monolayers were confluent in FCM medium at 37° C. in a humid atmosphere containing 5% CO2.
The fibroblast incubation medium (FIM) consisted of FCM supplemented with tritiated testosterone (1.6×10^−7 M, that is 6.32 μCi/ml) and nonradiolabeled testosterone (3.84×10^−6 M)
The test products and finasteride were taken up in DMSO before being diluted in the incubation medium. […]
The fibroblast cultures were preincubated in the presence of the test products or of the reference product for 2 hours before adding the substrate, testosterone. For this step, the test products and the reference product were prepared in the FCM medium.
After preincubation, the fibroblast cultures were incubated in the presence of the test products or of the reference product prepared in the FIM medium for 22 hours at 37° C. in a humid atmosphere containing 5% CO2. Control cultures were incubated in the FIM medium in the absence of test products and of reference product. […]
Each experimental condition was tested in triplicate.
After the incubation period, the cells were subjected to the action of ultrasound in the FIM medium. The cellular lysates thus obtained were extracted with dichloromethane. After evaporation, the dry residues were taken up in methanol and were deposited on 60F254 silica plates (MERCK, reference 5554).
The migration solvent was a mixture of dichloromethane and ether (7:3, v/v) At the end of the migration, the silica plates were read using a BERTHOLD radioactivity scanner.
The metabolizing of testosterone to 5α-dihydro-testosterone under the various experimental conditions was calculated: the results (areas of the 5α-dihydrotestosterone peaks counted by the BERTHOLD scanner) were expressed in pmol of 5α-dihydro-testosterone formed per culture well. They were also expressed as a percentage of the 5α-reductase activity present in the “DMSO control” group.
The groups of data (control group and treated groups) were treated by a one-way analysis of variance (ANOVA 1, p<0.05), followed by a DUNNETT's test (p<0.05). The effect of the test products and of the reference product was compared with the “DMSO control” group. The effects of the test products were compared to each other by a two-way analysis of variance (ANOVA 2, p<0.05, factor 1=concentration and factor 2=treatment).
The same materials and methods are used as in example 3 above.
It was proposed to evaluate the effect of fatty acid esters on the 5α-reductase activity. An in vitro model of normal human dermal fibroblast cultures was selected. The products tested were chosen from the group of fatty acid esters varying in the length and the functionality of the fatty chain, and the nature of the alkoxy group. These esters are the following: methyl oleate, methyl linoleate, methyl stearate, methyl laurate, methyl undecylenate, butyl oleate, oleyl oleate and methyl ricinoleate.

[1] = test system: normal human dermal fibroblasts; assay: Morphological examination of the fibroblasts (Example 4); type: cell-based; conditions: at 10 and 100 μg/ml

state of the fibroblasts by morphological examination of the cells [1]: cellular suffering
SMILES: CCCCCCCC/C=C\CCCCCCCCOC(=O)CCCCCCC/C=C\CCCCCCCC [Oleyl oleate, oleyl oleate]
5α-reductase activity as percentage of the “DMSO 0.1% (v/v)” group (5α-reductase; 1 μg/ml): 72 percentage of the “DMSO 0.1% (v/v)” group
inhibition of the 5α-reductase activity (5α-reductase; 1 μg/ml): 28%
5α-DHT formed per culture well, mean (5α-reductase; 1 μg/ml): 8.17* +/− pmol of 5α-DHT formed/culture well
5α-DHT formed per culture well, single well (5α-reductase; 1 μg/ml): 9.00 pmol of 5α-DHT formed/culture well and 7.32 pmol of 5α-DHT formed/culture well and 8.20 pmol of 5α-DHT formed/culture well
5α-reductase activity as percentage of the “DMSO 0.1% (v/v)” group (5α-reductase; 10 μg/ml): 55 percentage of the “DMSO 0.1% (v/v)” group
inhibition of the 5α-reductase activity (5α-reductase; 10 μg/ml): 45%
5α-DHT formed per culture well, mean (5α-reductase; 10 μg/ml): 6.25* +/− pmol of 5α-DHT formed/culture well
5α-DHT formed per culture well, single well (5α-reductase; 10 μg/ml): 6.12 pmol of 5α-DHT formed/culture well and 6.44 pmol of 5α-DHT formed/culture well and 6.20 pmol of 5α-DHT formed/culture well
5α-reductase activity as percentage of the “DMSO 0.1% (v/v)” group (5α-reductase; 100 μg/ml): 65 percentage of the “DMSO 0.1% (v/v)” group
inhibition of the 5α-reductase activity (5α-reductase; 100 μg/ml): 35%
5α-DHT formed per culture well, mean (5α-reductase; 100 μg/ml): 7.45* +/− pmol of 5α-DHT formed/culture well
5α-DHT formed per culture well, single well (5α-reductase; 100 μg/ml): 6.28 pmol of 5α-DHT formed/culture well and 8.60 pmol of 5α-DHT formed/culture well and 7.48 pmol of 5α-DHT formed/culture well
group by 5α-reductase inhibitory activity (5α-reductase; tested at 1, 10 and 100 μg/ml): A

From patent US8318186B2, “Use of at least a fatty ester for preparing a composition designed to inhibit 5-α-reductase activity, in pharmacology, in particular dermatology, in cosmetics and as food additive” (Laboratoires Expanscience, priority 2000, dated 2012)
